{"source": "patent US8952024B2", "about": "“Herbicidal pyrimidone derivatives” (E I du Pont de Nemours and Company, priority 2009, dated 2015)", "assay_in_all_cases": "Test B pre-/postemergence plant response", "format_in_all_cases": "in vivo", "key": {"[1]": {"test_system": "kochia (Kochia scoparia)", "conditions": "Preemergence", "outline": "(§1)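 Steps: sow seed in loam–sand soil and spray preemergence, or grow plants in peat-based medium to 1–4 leaves (2–18 cm) and spray postemergence; formulation is non-phytotoxic solvent plus surfactant; hold in greenhouse 13–15 days; score visually vs controls, 0 = no effect, 100 = complete control.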"}, "[2]": {"test_system": "blackgrass (Alopecurus myosuroides)", "outline": "as §1"}, "[3]": {"test_system": "soybean (Glycine max)", "outline": "as §1"}, "[4]": {"test_system": "velvetleaf (Abutilon theophrasti)", "outline": "as §1"}, "[5]": {"test_system": "woolly cupgrass (Eriochloa villosa)", "outline": "as §1"}, "[6]": {"test_system": "Surinam grass (Brachiaria decumbens)", "outline": "as §1"}, "[7]": {"test_system": "Italian ryegrass (Lolium multiflorum)", "outline": "as §1"}, "[8]": {"test_system": "giant foxtail (Setaria faberii)", "outline": "as §1"}, "[9]": {"test_system": "ragweed (common ragweed, Ambrosia elatior)", "outline": "as §1"}, "[10]": {"test_system": "downy bromegrass (Bromus tectorum)", "outline": "as §1"}, "[11]": {"test_system": "pigweed (Amaranthus retroflexus)", "outline": "as §1"}, "[12]": {"test_system": "corn (Zea mays)", "outline": "as §1"}, "[13]": {"test_system": "johnsongrass (Sorghum halepense)", "outline": "as §1"}, "[14]": {"conditions": "250 g ai/ha, Preemergence, 0 to 100 scale"}, "[15]": {"conditions": "Postemergence, 31 g ai/ha, scale 0 to 100 (0 no effect, 100 complete control)"}, "[16]": {"conditions": "Postemergence, 62 g ai/ha, scale 0 (no effect) to 100 (complete control), 13 to 15 days"}, "[17]": {"conditions": "Postemergence, 125 g ai/ha, visual rating after 13 to 15 days, scale 0 (no effect) to 100 (complete control)"}, "[18]": {"conditions": "Postemergence, 250 g ai/ha, scale 0 to 100"}, "[19]": {"conditions": "Preemergence, 31 g ai/ha, scale 0 to 100 (0 no effect, 100 complete control)"}, "[20]": {"conditions": "Preemergence, 62 g ai/ha, scale 0 to 100 (0 no effect, 100 complete control)"}, "[21]": {"conditions": "Preemergence, 125 g ai/ha, 0 to 100 scale"}}}
{"molecule": "O=C1CCCC(O)=C1C(=O)c1cnc(-c2ccccc2)n(-c2ccccc2F)c1=O", "note": "[Compound 26]", "values": [{"measurement": "Plant response rating, Kochia", "setting": "[1]; 250 g ai/ha, 0 to 100 scale", "result": 100}, {"measurement": "Plant response rating, Kochia", "setting": "[1]; 31 g ai/ha, scale 0 to 100 (0 no effect, 100 complete control)", "result": 80}, {"measurement": "Plant response rating, Kochia", "setting": "[1]; 62 g ai/ha, scale 0 to 100 (0 no effect, 100 complete control)", "result": 100}, {"measurement": "Kochia plant response rating", "setting": "[1]; 125 g ai/ha, 0 to 100 scale", "result": 100}, {"measurement": "Plant response rating, Blackgrass", "setting": "[2]; [14]", "result": 10}, {"measurement": "Plant response rating, Blackgrass", "setting": "[2]; [15]", "result": 0}, {"measurement": "Plant response rating, Blackgrass", "setting": "[2]; [16]", "result": 0}, {"measurement": "Plant response rating, Blackgrass", "setting": "[2]; [17]", "result": 10}, {"measurement": "Blackgrass plant response rating", "setting": "[2]; [18]", "result": 40}, {"measurement": "Plant response rating, Blackgrass", "setting": "[2]; [19]", "result": 0}, {"measurement": "Plant response rating, Blackgrass", "setting": "[2]; [20]", "result": 0}, {"measurement": "Blackgrass plant response rating", "setting": "[2]; [21]", "result": 0}, {"measurement": "Plant response rating, Soybean", "setting": "[3]; [14]", "result": 90}, {"measurement": "Plant response rating, Soybean", "setting": "[3]; [15]", "result": 95}, {"measurement": "Plant response rating, Soybean", "setting": "[3]; [16]", "result": 95}, {"measurement": "Plant response rating, Soybean", "setting": "[3]; [17]", "result": 95}, {"measurement": "Soybean plant response rating", "setting": "[3]; [18]", "result": 98}, {"measurement": "Plant response rating, Soybean", "setting": "[3]; [19]", "result": 50}, {"measurement": "Plant response rating, Soybean", "setting": "[3]; [20]", "result": 60}, {"measurement": "Soybean plant response rating", "setting": "[3]; [21]", "result": 80}, {"measurement": "Plant response rating, Velvetleaf", "setting": "[4]; [14]", "result": 100}, {"measurement": "Plant response rating, Velvetleaf", "setting": "[4]; [15]", "result": 70}, {"measurement": "Plant response rating, Velvetleaf", "setting": "[4]; [16]", "result": 70}, {"measurement": "Plant response rating, Velvetleaf", "setting": "[4]; [17]", "result": 95}, {"measurement": "Velvetleaf plant response rating", "setting": "[4]; [18]", "result": 98}, {"measurement": "Plant response rating, Velvetleaf", "setting": "[4]; [19]", "result": 50}, {"measurement": "Plant response rating, Velvetleaf", "setting": "[4]; [20]", "result": 90}, {"measurement": "Velvetleaf plant response rating", "setting": "[4]; [21]", "result": 100}, {"measurement": "Plant response rating, Cupgrass, Woolly", "setting": "[5]; [14]", "result": 85}, {"measurement": "Plant response rating, Cupgrass, Woolly", "setting": "[5]; [15]", "result": 40}, {"measurement": "Plant response rating, Cupgrass, Woolly", "setting": "[5]; [16]", "result": 40}, {"measurement": "Plant response rating, Cupgrass, Woolly", "setting": "[5]; [17]", "result": 85}, {"measurement": "Cupgrass, Woolly plant response rating", "setting": "[5]; [18]", "result": 85}, {"measurement": "Plant response rating, Cupgrass, Woolly", "setting": "[5]; [19]", "result": 0}, {"measurement": "Plant response rating, Cupgrass, Woolly", "setting": "[5]; [20]", "result": 5}, {"measurement": "Cupgrass, Woolly plant response rating", "setting": "[5]; [21]", "result": 50}, {"measurement": "Plant response rating, Surinam Grass", "setting": "[6]; [14]", "result": 90}, {"measurement": "Plant response rating, Surinam Grass", "setting": "[6]; [15]", "result": 30}, {"measurement": "Plant response rating, Surinam Grass", "setting": "[6]; [16]", "result": 40}, {"measurement": "Plant response rating, Surinam Grass", "setting": "[6]; [17]", "result": 60}, {"measurement": "Surinam Grass plant response rating", "setting": "[6]; [18]", "result": 60}, {"measurement": "Plant response rating, Surinam Grass", "setting": "[6]; [19]", "result": 0}, {"measurement": "Plant response rating, Surinam Grass", "setting": "[6]; [20]", "result": 5}, {"measurement": "Surinam Grass plant response rating", "setting": "[6]; [21]", "result": 90}, {"measurement": "Plant response rating, Ryegrass, Italian", "setting": "[7]; [14]", "result": 0}, {"measurement": "Plant response rating, Ryegrass, Italian", "setting": "[7]; [15]", "result": 0}, {"measurement": "Plant response rating, Ryegrass, Italian", "setting": "[7]; [16]", "result": 0}, {"measurement": "Plant response rating, Ryegrass, Italian", "setting": "[7]; [17]", "result": 10}, {"measurement": "Ryegrass, Italian plant response rating", "setting": "[7]; [18]", "result": 45}, {"measurement": "Plant response rating, Ryegrass, Italian", "setting": "[7]; [19]", "result": 0}, {"measurement": "Plant response rating, Ryegrass, Italian", "setting": "[7]; [20]", "result": 0}, {"measurement": "Ryegrass, Italian plant response rating", "setting": "[7]; [21]", "result": 0}, {"measurement": "Plant response rating, Foxtail, Giant", "setting": "[8]; [14]", "result": 90}, {"measurement": "Plant response rating, Foxtail, Giant", "setting": "[8]; [15]", "result": 60}, {"measurement": "Plant response rating, Foxtail, Giant", "setting": "[8]; [16]", "result": 60}, {"measurement": "Plant response rating, Foxtail, Giant", "setting": "[8]; [17]", "result": 70}, {"measurement": "Foxtail, Giant plant response rating", "setting": "[8]; [18]", "result": 95}, {"measurement": "Plant response rating, Foxtail, Giant", "setting": "[8]; [19]", "result": 5}, {"measurement": "Plant response rating, Foxtail, Giant", "setting": "[8]; [20]", "result": 10}, {"measurement": "Foxtail, Giant plant response rating", "setting": "[8]; [21]", "result": 45}, {"measurement": "Plant response rating, Ragweed", "setting": "[9]; [14]", "result": 100}, {"measurement": "Plant response rating, Ragweed", "setting": "[9]; [15]", "result": 70}, {"measurement": "Plant response rating, Ragweed", "setting": "[9]; [16]", "result": 85}, {"measurement": "Plant response rating, Ragweed", "setting": "[9]; [17]", "result": 98}, {"measurement": "Ragweed plant response rating", "setting": "[9]; [18]", "result": 100}, {"measurement": "Plant response rating, Ragweed", "setting": "[9]; [19]", "result": 65}, {"measurement": "Plant response rating, Ragweed", "setting": "[9]; [20]", "result": 85}, {"measurement": "Ragweed plant response rating", "setting": "[9]; [21]", "result": 95}, {"measurement": "Plant response rating, Bromegrass, Downy", "setting": "[10]; [14]", "result": 10}, {"measurement": "Plant response rating, Bromegrass, Downy", "setting": "[10]; [15]", "result": 10}, {"measurement": "Plant response rating, Bromegrass, Downy", "setting": "[10]; [16]", "result": 15}, {"measurement": "Plant response rating, Bromegrass, Downy", "setting": "[10]; [17]", "result": 20}, {"measurement": "Bromegrass, Downy plant response rating", "setting": "[10]; [18]", "result": 40}, {"measurement": "Plant response rating, Bromegrass, Downy", "setting": "[10]; [19]", "result": 0}, {"measurement": "Plant response rating, Bromegrass, Downy", "setting": "[10]; [20]", "result": 0}, {"measurement": "Bromegrass, Downy plant response rating", "setting": "[10]; [21]", "result": 0}, {"measurement": "Plant response rating, Pigweed", "setting": "[11]; [14]", "result": 100}, {"measurement": "Plant response rating, Pigweed", "setting": "[11]; [15]", "result": 50}, {"measurement": "Plant response rating, Pigweed", "setting": "[11]; [16]", "result": 80}, {"measurement": "Plant response rating, Pigweed", "setting": "[11]; [17]", "result": 85}, {"measurement": "Pigweed plant response rating", "setting": "[11]; [18]", "result": 98}, {"measurement": "Plant response rating, Pigweed", "setting": "[11]; [19]", "result": 98}, {"measurement": "Plant response rating, Pigweed", "setting": "[11]; [20]", "result": 100}, {"measurement": "Pigweed plant response rating", "setting": "[11]; [21]", "result": 100}, {"measurement": "Plant response rating, Corn", "setting": "[12]; [14]", "result": 0}, {"measurement": "Plant response rating, Corn", "setting": "[12]; [15]", "result": 35}, {"measurement": "Plant response rating, Corn", "setting": "[12]; [16]", "result": 35}, {"measurement": "Plant response rating, Corn", "setting": "[12]; [17]", "result": 40}, {"measurement": "Corn plant response rating", "setting": "[12]; [18]", "result": 50}, {"measurement": "Plant response rating, Corn", "setting": "[12]; [19]", "result": 0}, {"measurement": "Plant response rating, Corn", "setting": "[12]; [20]", "result": 0}, {"measurement": "Corn plant response rating", "setting": "[12]; [21]", "result": 0}, {"measurement": "Plant response rating, Johnsongrass", "setting": "[13]; [14]", "result": 90}, {"measurement": "Plant response rating, Johnsongrass", "setting": "[13]; [15]", "result": 35}, {"measurement": "Plant response rating, Johnsongrass", "setting": "[13]; [16]", "result": 50}, {"measurement": "Plant response rating, Johnsongrass", "setting": "[13]; [17]", "result": 50}, {"measurement": "Johnsongrass plant response rating", "setting": "[13]; [18]", "result": 70}, {"measurement": "Plant response rating, Johnsongrass", "setting": "[13]; [19]", "result": 0}, {"measurement": "Plant response rating, Johnsongrass", "setting": "[13]; [20]", "result": 10}, {"measurement": "Johnsongrass plant response rating", "setting": "[13]; [21]", "result": 60}]}
